According to ChEMBL document CHEMBL1156712, “CNS depressant and anticonvulsant activities of some novel 3-[5-substituted 1,3,4-thiadiazole-2-yl]-2-styryl quinazoline-4(3H)-ones” (Eur J Med Chem, 2008):
Active and inactive are the calls of the source. The calls are words filed in the database; no cut-off is given here.

Key:
Mus musculus [1] = test: Anticonvulsant activity in mouse at 300 mg/kg, ip after 4 hrs by scPTZ test; assay type: functional, organism-based; design: dose 300 mg/kg
Mus musculus [2] = test: Anticonvulsant activity in mouse at 300 mg/kg, ip after 0.5 hrs by scPTZ test; assay type: functional, organism-based; design: dose 300 mg/kg
Mus musculus [3] = test: Neurotoxicity in ip dosed mouse assessed as minimal motor impairment after 4 hrs by rotarod test; assay type: toxicity, organism-based; settings: in vivo
Mus musculus [4] = test: Anticonvulsant activity in ip dosed mouse after 0.5 hrs by MES test; assay type: functional
Mus musculus [5] = test: Anticonvulsant activity in ip dosed mouse after 4 hrs by MES test; assay type: functional
Mus musculus [6] = test: Neurotoxicity in ip dosed mouse assessed as minimal motor impairment after 0.5 hrs by rotarod test; assay type: toxicity, organism-based; settings: in vivo
Mus musculus [7] = test: Anticonvulsant activity in mouse at 300 mg/kg, ip after 4 hrs by MES test; assay type: functional, organism-based; design: dose 300 mg/kg
Mus musculus [8] = test: Neurotoxicity in mouse assessed as minimal motor impairment at 300 mg/kg, ip after 4 hrs by rotarod test; assay type: toxicity, organism-based; design: dose 300 mg/kg, route intraperitoneal; settings: in vivo
Mus musculus [9] = test: Anticonvulsant activity in mouse at 300 mg/kg, ip after 0.5 hrs by MES test; assay type: functional, organism-based; design: dose 300 mg/kg
Rattus norvegicus = test: Central nervous system depressant activity in Wistar rat assessed as immobility time at 100 mg/kg, po after 1 hr by forced swim pool test; assay type: functional
Mus musculus [10] = test: Neurotoxicity in mouse assessed as minimal motor impairment at 300 mg/kg, ip after 0.5 hrs by rotarod test; assay type: toxicity, organism-based; design: dose 300 mg/kg, route intraperitoneal; settings: in vivo
Mus musculus [11] = test: Neurotoxicity in ip dosed mouse assessed as minimal motor impairment at 100 mg/kg, ip after 0.25 hrs by rotarod test; assay type: toxicity, organism-based; design: dose 100 mg/kg, route intraperitoneal; settings: in vivo
Mus musculus [12] = test: Neurotoxicity in ip dosed mouse assessed as minimal motor impairment at 100 mg/kg, ip after 1 hr by rotarod test; assay type: toxicity, organism-based; design: dose 100 mg/kg, route intraperitoneal; settings: in vivo
Mus musculus [13] = test: Anticonvulsant activity in ip dosed mouse after 4 hrs by scPTZ test; assay type: functional
Mus musculus [14] = test: Anticonvulsant activity in ip dosed mouse after 0.5 hrs by scPTZ test; assay type: functional
Mus musculus [15] = test: Toxicity in mouse at 300 mg/kg, ip after 4 hrs; assay type: organism-based; design: dose 300 mg/kg, route intraperitoneal; settings: in vivo
Mus musculus [16] = test: Neurotoxicity in ip dosed mouse assessed as loss of righting reflux after 0.5 hrs; assay type: toxicity, organism-based; settings: in vivo

Compound | Activity (Mus musculus [1]) | Activity (Mus musculus [2]) | Activity (Mus musculus [3]) [mg/kg] | Activity (Mus musculus [4]) [mg/kg] | Active dose (Mus musculus [5]) [mg/kg] | Activity (Mus musculus [6]) [mg/kg] | Activity (Mus musculus [7]) | Activity (Mus musculus [8]) | Activity (Mus musculus [9]) | Time (Rattus norvegicus) [s] | Activity (Mus musculus [10]) | Activity (Mus musculus [11]) [mg/kg] | Activity (Mus musculus [12]) [mg/kg] | Activity (Mus musculus [13]) [mg/kg] | Activity (Mus musculus [14]) [mg/kg] | Activity (Mus musculus [15]) | Activity (Mus musculus [16])
O=C1NC(=O)C(c2ccccc2)(c2ccccc2)N1 [PHENYTOIN] | inactive | inactive | 100 | 30 | 30 | 100 | – | – | – | – | – | – | – | – | – | – | –
COc1ccc(-c2nnc(-n3c(/C=C/c4cccc(Cl)c4)nc4ccccc4c3=O)s2)cc1 | inactive | inactive | – | – | – | – | inactive | Non-toxic | inactive | 163.21 | Non-toxic | – | – | – | – | – | –
O=c1c2ccccc2nc(/C=C/c2ccc(Cl)cc2)n1-c1nnc(-c2cccc(Cl)c2)s1 | – | – | – | – | – | 300 | inactive | Non-toxic | inactive | 127.48 | – | 100 | 100 | 300 | 300 | – | –
O=c1c2ccccc2nc(/C=C/c2cccc(Cl)c2)n1-c1nnc(-c2cccc(Cl)c2)s1 | inactive | inactive | – | – | – | – | inactive | Non-toxic | inactive | 175.83 | Non-toxic | – | – | – | – | – | –
CCC1(C)CC(=O)NC1=O (centres undefined) [ETHOSUXIMIDE] | inactive | – | – | – | – | – | inactive | Non-toxic | inactive | – | Non-toxic | – | – | – | 300 | – | –
NC(=O)N1c2ccccc2C=Cc2ccccc21 [CARBAMAZEPINE] | – | – | 100 | 30 | 100 | 100 | – | – | – | – | – | – | – | 300 | 100 | – | –
O=c1c2ccccc2nc(/C=C/c2ccc(Cl)cc2)n1-c1nnc(-c2ccccc2)s1 | – | – | – | 100 | 300 | – | – | Non-toxic | – | 103.26 | Non-toxic | – | – | 300 | 300 | Toxic | –
COc1ccc(-c2nnc(-n3c(/C=C/c4ccc(Cl)cc4)nc4ccccc4c3=O)s2)cc1 | inactive | inactive | 300 | – | – | 300 | inactive | – | inactive | 177.08 | – | – | – | – | – | – | –
CCCC(CCC)C(=O)[O-].[Na+] [VALPROATE SODIUM] | inactive | – | – | – | – | – | inactive | Non-toxic | inactive | – | Non-toxic | – | – | – | 300 | – | –
O=c1c2ccccc2nc(/C=C/c2cccc(Cl)c2)n1-c1nnc(/C=C/c2ccccc2)s1 | inactive | inactive | – | – | – | – | inactive | Non-toxic | inactive | 187.91 | Non-toxic | – | – | – | – | – | –
Cc1ccc(-c2nnc(-n3c(/C=C/c4ccncc4)nc4ccccc4c3=O)s2)cc1 | inactive | inactive | – | – | – | 100 | inactive | Non-toxic | inactive | 131.51 | – | – | – | – | – | – | –
COc1ccc(-c2nnc(-n3c(/C=C/c4ccncc4)nc4ccccc4c3=O)s2)cc1 | inactive | inactive | – | – | – | – | inactive | Non-toxic | inactive | 168.42 | Non-toxic | – | – | – | – | – | –
O=c1c2ccccc2nc(/C=C/c2ccncc2)n1-c1nnc(/C=C/c2ccccc2)s1 | inactive | inactive | – | – | – | – | inactive | Non-toxic | inactive | 114.42 | Non-toxic | – | – | – | – | – | –
O=c1c2ccccc2nc(/C=C/c2ccncc2)n1-c1nnc(-c2ccccc2)s1 | inactive | inactive | – | – | – | – | inactive | Non-toxic | inactive | 83.23 | Non-toxic | – | – | – | – | – | –
Cc1ccc(-c2nnc(-n3c(/C=C/c4cccc(Cl)c4)nc4ccccc4c3=O)s2)cc1 | inactive | inactive | – | – | – | – | inactive | Non-toxic | inactive | 100.76 | Non-toxic | – | – | – | – | – | –
O=c1c2ccccc2nc(/C=C/c2ccncc2)n1-c1nnc(-c2ccc(Cl)cc2)s1 | – | – | – | – | 100 | 300 | – | Non-toxic | inactive | 99.82 | – | – | – | 300 | 300 | – | –
Cc1ccc(-c2nnc(-n3c(/C=C/c4ccc(Cl)cc4)nc4ccccc4c3=O)s2)cc1 | inactive | inactive | – | – | – | 300 | inactive | Non-toxic | inactive | 150.1 | – | – | – | – | – | – | –
O=c1c2ccccc2nc(/C=C/c2ccc(Cl)cc2)n1-c1nnc(/C=C/c2ccccc2)s1 | inactive | inactive | – | – | – | – | inactive | Non-toxic | inactive | 73.83 | Non-toxic | – | – | – | – | – | –
O=c1c2ccccc2nc(/C=C/c2ccc(Cl)cc2)n1-c1nnc(-c2ccc(Cl)cc2)s1 | inactive | inactive | – | – | – | 300 | inactive | Non-toxic | inactive | 117.93 | – | – | – | – | – | – | –
O=c1c2ccccc2nc(/C=C/c2ccncc2)n1-c1nnc(-c2cccc(Cl)c2)s1 | inactive | inactive | 300 | – | – | 300 | inactive | – | inactive | 142.36 | – | – | – | – | – | – | –
O=c1c2ccccc2nc(/C=C/c2cccc(Cl)c2)n1-c1nnc(-c2ccccc2)s1 | inactive | inactive | – | – | – | 300 | inactive | Non-toxic | inactive | 132.69 | – | – | – | – | – | – | Toxic
O=c1c2ccccc2nc(/C=C/c2cccc(Cl)c2)n1-c1nnc(-c2ccc(Cl)cc2)s1 | inactive | inactive | – | – | – | – | inactive | Non-toxic | inactive | 163.75 | Non-toxic | – | – | – | – | – | –
